Entries after “also recorded” stand apart in the source; their conditions may differ.

This is an account of results in patent publication US20100331722A1, “Device and method for assessing operant facial pain” (priority 2004, published 2010).

This experiment deals with orofacial inflammatory pain. Briefly: thermal operant orofacial pain test after carrageenan-induced orofacial inflammation. The class given is in vivo, Male Sprague Dawley rats. The method, then: General. Male Sprague Dawley rats (200-300 g, N=18) were lightly anesthetized using isoflurane (1-2.5%, inhalation) and their hair was bilaterally removed (FIG. 1) from the orofacial region using clippers, followed by depilatory cream 1 day prior to behavioral testing. Excess cream was removed with a moistened paper towel to minimize skin irritation. Rats were food fasted for 12-15 hours prior to each testing session and following each session were provided with standard food chow. Animals were tested at the same time of the day and a recovery day from the fasting was included between the testing sessions to minimize nutritional differences from their normal food routine. Water was made available ad libitum before and after testing sessions and animal weight was recorded daily. The animals were then brought into the behavioral procedure room 1 hour prior to testing and allowed to acclimate to the temperature and ambient noise of the room. Animal testing procedures and general handling complied with the ethical guidelines and standards established by the Institutional Animal Care and Use Committee at the University of Florida and all procedures complied with the Guide for Care and Use of Laboratory Animals (Council, 1996).
Thermal Testing. A testing cage (20.3 cm W×20.3 cm D×16.2 cm H) with acrylic walls was constructed with an opening in one wall (4×6 cm) which was lined with grounded metal (aluminum) tubing. The tubing served as a thermode when connected to a water pump (Model RTE110B, NES Laboratories, Inc.) via flexible polyethylene tubing through which heated water (range: 37.7-57.2° C.) was circulated (FIGS. 2A and 2B). A standard rodent watering bottle containing a diluted (1:2 with water) sweetened condensed milk solution (Nestle Carnation Company, room temperature) was mounted outside the cage. The circulating water pump was activated and the appropriate temperature was set prior to testing the animals. The room temperature was maintained at 22±1° C. for all behavioral tests.
Unrestrained animals were placed separately in a testing cage, and the data acquisition system was activated (WinDaq Lite Data Acq DI-194, DATAQ Instruments, Inc). The bottle was then positioned in proximity to the cage such that the animal was allowed access to the reward bottle when simultaneously contacting the thermode with its face. The metal spout on the watering bottle was connected to a 13-volt DC power supply and, in series, to a multi-channel data acquisition module (WinDaq Lite Data Acq DI-194, DATAQ Instruments, Inc.). When the rat drank from the water bottle, the skin on its shaved face contacted the grounded thermode, and the animal's tongue contacted the metal spout on the water bottle, completing an electrical circuit (FIG. 2A). The bottle position was adjusted horizontally and vertically to facilitate contact of the thermode within the same shaved area of the face for each animal (FIG. 2B). The closed circuit was registered in the computer and data were collected at 60 Hz for the entire length of the experiment. Each spout contact was recorded as a ‘licking’ event. A separate circuit was established from the metal thermode to the animal by grounding the floor with an aluminum sheet for recording of ‘facial contact’ events (FIG. 3). The latter circuit was necessary to determine if the animal made an attempt at the reward bottle but was discouraged by the temperature of the thermode. The duration of each facial contact and the total number of events (licking, facial contact) were recorded. The investigator monitored online data acquisition to ensure that each recorded licking event from the first circuit corresponded to a recorded facial contact on the tubing (the second circuit). […]

The mark [1] stands for this setting: one animal, retested 30 minutes after morphine 0.5 mg/kg s.c., post-inflammation.

As for carrageenan, the “effect of carrageenan inflammation on operant outcome measures” value (carrageenan 6 mg s.c. mid-cheek bilaterally, tested 3 hours post-inflammation at 45.5° C., all measures except facial contact events (FIG. 6)) is listed as “significant reduction”.

For `CN1CC[C@]23c4c5ccc(O)c4O[C@H]2[C@@H](O)C=C[C@H]3[C@H]1C5` [morphine], the “effect on inflammatory hyperalgesia (operant outcome measures)” value (morphine 0.5 mg/kg s.c. 30 minutes prior to testing, 2.5 hours post-carrageenan, 45.5° C., N=6) is on record as “all but one of these effects was completely reversed; also recorded: completely blocked”. The “operant outcome measures of morphine-treated inflamed animals versus normal animals” value (morphine-treated animals tested at 45.5° C., all measures except facial contact events) was “comparable to normal animals tested at 37.7 °C”. Moreover, the “intake (post-morphine)” value (one animal, retested 30 minutes after morphine 0.5 mg/kg s.c., given after the 3 hours post-inflammation trial, 30-minute operant trial) turned out to be 17.8 g. Besides, under setting [1], the “facial contact duration (post-morphine)” value turned out to be 634 s, the “facial contacts (post-morphine)” value is reported as 309, the “licking events (post-morphine)” value stood at 3582 and the “ratio facial duration/facial contact (post-morphine)” value came to 2.05. Also, under setting [1], the “ratio licking/contact events (post-morphine)” value was 11.6. For the same compound, the “operant responses after morphine, pain indices (FIG. 7)” value (single animal, repeated testing following carrageenan, before and after morphine) was “analgesic response”.
